A short description of one data set: animal or person. In kind it is in vivo. The settings on record: Rattus norvegicus, po, read-out: ED50, anti-apomorphine effect.
A further data set can be described thus: in vivo. The conditions noted are these: mouse, po.

Our source for the ED50 and LD50 values is patent US4076821A (priority 1976, dated 1978).

As a reminder, the ED50 is the dose at which the effect has come halfway, by size or by number of responders. A word on the LD50: it is the dose expected to kill half of the subjects tested. A higher LD50 goes with a less toxic substance.

Take `O=C(CCCN1CCC(O)(c2ccc(Cl)cc2)CC1)c1ccc(F)cc1` [Haloperidol, 1-[3-(p-fluorobenzoyl)propyl]-4-(p-chlorophenyl)-4-piperidinol, reference compound]: the ED50 in the data set “animal or person” was found to be 0.5 mg/kg. The LD50 in “in vivo” is more than 100 mg/kg.
On the same counts, the results for `O=c1[nH]c2ccccc2n1C1CCN(CCCC(c2ccc(F)cc2)c2ccc(F)cc2)CC1` [Pimozide, 1-[1-(4,4-bis(p-fluorophenyl)butyl)-4-piperidyl]-2-benzimidazolinone, reference compound] are 0.25 mg/kg and more than 1000 mg/kg.
For the compound `Cl.OC1(c2ccc(Cl)c(C(F)(F)F)c2)CCN(C2CCC(c3ccc(F)cc3)(c3ccc(F)cc3)CC2)CC1` [Test Compound A, 1-[4,4-bis(p-fluorophenyl)cyclohexyl]-4-(4-chloro-3-trifluoromethylphenyl)-4-piperidinol hydrochloride], the ED50 in “animal or person” is 2.46 mg/kg. The same compound had an LD50 in the data set “in vivo” not below 464 mg/kg.
Consider `O=C1NCN(c2ccc(F)cc2)C12CCN(C1CCC(c3ccc(F)cc3)(c3ccc(F)cc3)CC1)CC2` [Test Compound B, 8-[4,4-bis(p-fluorophenyl)cyclohexyl]-1-(p-fluorophenyl)-1,3,8-triazaspiro[4.5]decan-4-one], for which, in “animal or person”, the ED50 is 0.1 mg/kg.
For the compound `O=C1NCN(c2ccc(Cl)cc2)C12CCN(C1CCC(c3ccc(F)cc3)(c3ccc(F)cc3)CC1)CC2` [Test Compound E, 8-[4,4-bis(p-fluorophenyl)cyclohexyl]-1-(p-chlorophenyl)-1,3,8-triazaspiro[4.5]decan-4-one], the ED50 in “animal or person” is 0.28 mg/kg. For the same compound, in “in vivo”, the LD50 was not below 464 mg/kg.
